Data as given in patent US9399626B2, “2-thiopyrimidinones” (Pfizer Inc., priority 2011, dated 2016).
Where a name gives a salt, the structure may show the parent alone.

Biological target: T1, MPO (purified from human polynuclear leukocytes) (Homo sapiens, UniProt P05164)
T1 construct: purified from human polynuclear leukocytes; purchased Calbiochem/EMD Biosciences; host or cells: human polynuclear leukocytes (natural source)
Test: MPO Amplex Red Activity Assay
Assay type: biochemical
Details: Table 1, 2 μM H2O2, pH 7.4
Procedure, shortened: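 Human leukocyte MPO […] oxidises 30 μM Amplex Red with 2 μM H2O2 in 50 mM NaPi pH 7.4, 150 mM NaCl, 1 mM DTPA, 2% DMSO. Resorufin fluorescence (ex 530/em 580 nm) read every 20 s, minus catalase background. kobs from the first 600 s, corrected for auto-inactivation, fit versus [I] for kinact/KI.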

T1 sequence (P05164 279-745 limits assumed): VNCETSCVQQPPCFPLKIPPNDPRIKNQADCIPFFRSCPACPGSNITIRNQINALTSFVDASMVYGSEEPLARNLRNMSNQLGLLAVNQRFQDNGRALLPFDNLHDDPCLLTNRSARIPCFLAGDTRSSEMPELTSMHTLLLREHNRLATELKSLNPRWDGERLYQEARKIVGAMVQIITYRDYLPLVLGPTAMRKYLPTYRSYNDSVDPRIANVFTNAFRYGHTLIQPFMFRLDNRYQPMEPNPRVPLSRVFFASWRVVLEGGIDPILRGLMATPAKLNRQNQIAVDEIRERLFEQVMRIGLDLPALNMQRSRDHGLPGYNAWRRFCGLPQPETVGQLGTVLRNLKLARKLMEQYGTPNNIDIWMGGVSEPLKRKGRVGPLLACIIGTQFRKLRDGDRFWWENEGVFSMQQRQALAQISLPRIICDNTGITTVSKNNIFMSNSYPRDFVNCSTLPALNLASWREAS
T1 sequence (P05164 165-273 limits assumed): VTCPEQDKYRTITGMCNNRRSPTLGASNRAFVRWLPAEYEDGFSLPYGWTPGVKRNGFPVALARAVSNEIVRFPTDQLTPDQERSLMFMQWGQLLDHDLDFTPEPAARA

Structure (SMILES)	MPO kinact/Ki
COc1ccc(F)cc1-c1cc(=O)[nH]c(=S)n1CCCN=C(N)N [Example 126, 2-{3-[6-(5-fluoro-2-methoxyphenyl)-4-oxo-2-thioxo-3,4-dihydropyrimidin-1(2H)-yl]propyl} guanidine]	18200 1/s per M
COc1ccc(F)cc1-c1cc(=O)[nH]c(=S)n1CCNC(=O)CN [Example 127, N-{2-[6-(5-fluoro-2-methoxyphenyl)-4-oxo-2-thioxo-3,4-dihydropyrimidin-1(2H)-yl]ethyl} glycinamide hydrochloride]	5810 1/s per M
COc1ccc(Cl)cc1-c1cc(=O)[nH]c(=S)n1CCN=C(N)N [Example 128, 2-{2-[6-(5-chloro-2-methoxyphenyl)-4-oxo-2-thioxo-3,4-dihydropyrimidin-1(2H)-yl]ethyl} guanidine hydrochloride]	7680 1/s per M
COc1cc(OC)c(-c2cc(=O)[nH]c(=S)n2CCCN)cc1Cl [Example 129, 1-(3-aminopropyl)-6-(5-chloro-2,4-dimethoxyphenyl)-2-thioxo-2,3-dihydropyrimidin-4(1H)-one hydrochloride]	18700 1/s per M
N=C(N)NCCn1c(-c2ccccc2-n2nccn2)cc(=O)[nH]c1=S [Example 130, 1-(2-{4-oxo-2-thioxo-6-[2-(2H-1,2,3-triazol-2-yl)phenyl]-3,4-dihydropyrimidin-1(2H)-yl}ethyl)guanidine hydrochloride]	4830 1/s per M
COc1ccc(OC)c(-c2cc(=O)[nH]c(=S)n2CCCN=C(N)N)c1 [Example 131, 2-{3-[6-(2,5-dimethoxyphenyl)-4-oxo-2-thioxo-3,4-dihydropyrimidin-1(2H)-yl]propyl} guanidine trifluoroacetate]	14500 1/s per M
COc1ccc(Cl)cc1-c1cc(=O)[nH]c(=S)n1CC1CCNCC1 [Example 132, 6-(5-chloro-2-methoxyphenyl)-1-(piperidin-4-ylmethyl)-2-thioxo-2,3-dihydropyrimidin-4(1H)-one hydrochloride]	3840 1/s per M
COc1ccc(Cl)cc1-c1cc(=O)[nH]c(=S)n1CCCN=C(N)N [Example 133, 2-{3-[6-(5-chloro-2-methoxyphenyl)-4-oxo-2-thioxo-3,4-dihydropyrimidin-1(2H)-yl]propyl} guanidine]	15300 1/s per M
COc1ccc(Cl)cc1-c1cc(=O)[nH]c(=S)n1CCCNC(C)=O [Example 134, N-{3-[6-(5-chloro-2-methoxyphenyl)-4-oxo-2-thioxo-3,4-dihydropyrimidin-1(2H)-yl]propyl} acetamide]	5350 1/s per M
COc1ccc(Cl)cc1-c1cc(=O)[nH]c(=S)n1CCNC(=O)CN [Example 135, N-{2-[6-(5-chloro-2-methoxyphenyl)-4-oxo-2-thioxo-3,4-dihydropyrimidin-1(2H)-yl]ethyl} glycinamide hydrochloride]	6750 1/s per M
COc1ccc(-c2cc(=O)[nH]c(=S)n2CCNC(=N)NC#N)c(OC)c1 [Example 136, 1-cyano-3-{2-[6-(2,4-dimethoxyphenyl)-4-oxo-2-thioxo-3,4-dihydropyrimidin-1(2H)-yl]ethyl}guanidine]	1920 1/s per M
COc1ccc(-c2cc(=O)[nH]c(=S)n2CC(=O)OC(C)(C)C)c(OC)c1 [Example 137, tert-butyl[6-(2,4-dimethoxyphenyl)-4-oxo-2-thioxo-3,4-dihydropyrimidin-1(2H)-yl]acetate]	701 1/s per M
COc1cc(OC)c(-c2cc(=O)[nH]c(=S)n2CCN=C(N)N)cc1OC [Example 138, 2-{2-[4-oxo-2-thioxo-6-(2,4,5-trimethoxyphenyl)-3,4-dihydropyrimidin-1(2H)-yl]ethyl}guanidine hydrochloride]	4530 1/s per M
CCOC(=O)Cn1c(-c2cc(OC)c(OC)cc2OC)cc(=O)[nH]c1=S [Example 139, ethyl[4-oxo-2-thioxo-6-(2,4,5-trimethoxyphenyl)-3,4-dihydropyrimidin-1(2H)-yl]acetate]	2890 1/s per M
COc1ccc(-c2cc(=O)[nH]c(=S)n2CCOCCNC(=N)N)c(OC)c1 [Example 140, 1-(2-{2-[6-(2,4-dimethoxyphenyl)-4-oxo-2-thioxo-3,4-dihydropyrimidin-1(2H)-yl]ethoxy}ethyl) guanidine formate]	10400 1/s per M
COc1cc(OC)c(-c2cc(=O)[nH]c(=S)n2CCCN=C(N)N)cc1OC [Example 141, 2-{3-[4-oxo-2-thioxo-6-(2,4,5-trimethoxyphenyl)-3,4-dihydropyrimidin-1(2H)-yl]propyl} guanidine trifluoroacetate]	10500 1/s per M
NCCn1c(-c2cccc3[nH]ccc23)cc(=O)[nH]c1=S [Example 142, 1-(2-aminoethyl)-6-(1H-indol-4-yl)-2-thioxo-2,3-dihydropyrimidin-4(1H)-one trifluoroacetate]	4210 1/s per M
NCCn1c(-c2cccc3ccoc23)cc(=O)[nH]c1=S [Example 143, 1-(2-aminoethyl)-6-(1-benzofuran-7-yl)-2-thioxo-2,3-dihydropyrimidin-4(1H)-one hydrochloride]	8110 1/s per M
NCCn1c(-c2ccccc2-n2nccn2)cc(=O)[nH]c1=S [Example 144, 1-(2-aminoethyl)-2-thioxo-6-[2-(2H-1,2,3-triazol-2-yl)phenyl]-2,3-dihydropyrimidin-4(1H)-one hydrochloride]	6010 1/s per M
COc1ncc(Cl)cc1-c1cc(=O)[nH]c(=S)n1CC(N)=O [Example 145, 2-[6-(5-chloro-2-methoxypyridin-3-yl)-4-oxo-2-thioxo-3,4-dihydropyrimidin-1(2H)-yl]acetamide]	5080 1/s per M
COc1cc(OC)c(-c2cc(=O)[nH]c(=S)n2CC(N)=O)cc1C [Example 146, 2-[6-(2,4-dimethoxy-5-methylphenyl)-4-oxo-2-thioxo-3,4-dihydropyrimidin-1(2H)-yl]acetamide]	8950 1/s per M
COc1cc(-c2cc(=O)[nH]c(=S)n2CC(N)=O)c(OC)cc1C [Example 147, 2-[6-(2,5-dimethoxy-4-methylphenyl)-4-oxo-2-thioxo-3,4-dihydropyrimidin-1(2H)-yl]acetamide]	6500 1/s per M
COc1ccc(Cl)cc1-c1cc(=O)[nH]c(=S)n1CCCNC(N)=O [Example 148, 1-{3-[6-(5-chloro-2-methoxyphenyl)-4-oxo-2-thioxo-3,4-dihydropyrimidin-1(2H)-yl]propyl}urea]	6690 1/s per M
COc1ccc(Cl)cc1-c1cc(=O)[nH]c(=S)n1CCCNC(=O)CN [Example 149, N-{3-[6-(5-chloro-2-methoxyphenyl)-4-oxo-2-thioxo-3,4-dihydropyrimidin-1(2H)-yl]propyl} glycinamide hydrochloride]	9770 1/s per M
COc1ncc(C)cc1-c1cc(=O)[nH]c(=S)n1CCO [Example 150, 1-(2-hydroxyethyl)-6-(2-methoxy-5-methylpyridin-3-yl)-2-thioxo-2,3-dihydropyrimidin-4(1H)-one]	8970 1/s per M
